Several values for one entry are separate records, joined by “and”; a condition that tells them apart may be missing. Equal values may be shown once. Toxic doses and inconclusive results are not listed. Rule for the calls: active = survival T/C of 150% or more; inactive = T/C below 125% in these data.
Test system: P388 leukemia ip, CD2F1 mice, survival T/C
Assay: NCI In Vivo Anticancer Drug Screen. Data for tumor model P388 Leukemia (intraperitoneal) in CD2F1 (CDF1) mice
Conditions: endpoint: median survival time, higher = longer survival
Method in brief: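 Mice carrying the transplanted tumor received test compound or vehicle. Survival was recorded in each group, and the value is the treated-group measurement divided by that of the vehicle-treated control group.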

[1] = dose: 12.5 mg/kg/injection, schedule: Q01DX009 (ip), vehicle: other
[2] = dose: 25.0 mg/kg/injection, schedule: Q01DX009 (ip), vehicle: other
[3] = dose: 50.0 mg/kg/injection, schedule: Q01DX009 (ip), vehicle: other
[4] = dose: 100.0 mg/kg/injection, schedule: Q01DX009 (ip), vehicle: other
[5] = dose: 200.0 mg/kg/injection, schedule: Q01DX009 (ip), vehicle: other
[6] = dose: 50.0 mg/kg/injection, schedule: Q01DX005 (ip), vehicle: Klucel (hydroxypropylcellulose) (HPC)
[7] = dose: 100.0 mg/kg/injection, schedule: Q01DX005 (ip), vehicle: Klucel (hydroxypropylcellulose) (HPC)
[8] = dose: 200.0 mg/kg/injection, schedule: Q01DX005 (ip), vehicle: Klucel (hydroxypropylcellulose) (HPC)
[9] = dose: 50.0 mg/kg/injection, schedule: Q01DX009 (ip), vehicle: saline with Tween-80
[10] = dose: 100.0 mg/kg/injection, schedule: Q01DX009 (ip), vehicle: saline with Tween-80
[11] = dose: 50.0 mg/kg/injection, schedule: Q01DX009 (ip), vehicle: saline
[12] = dose: 100.0 mg/kg/injection, schedule: Q01DX009 (ip), vehicle: saline

Measured: T/C

Cc1cccc(OCC(O)CN2CC2)c1 (stereo not drawn)
inactive: dose: 100.0 mg/kg/injection, schedule: Q01DX001 (ip), vehicle: saline with Tween-80 112 % of control | dose: 200.0 mg/kg/injection, schedule: Q01DX001 (ip), vehicle: saline with Tween-80 120 % of control | dose: 400.0 mg/kg/injection, schedule: Q01DX001 (ip), vehicle: saline with Tween-80 103 % of control

Cc1ccc(N/N=C/C(=O)O)cc1
inactive: [1] 113 % of control | [2] 103 % of control | [3] 112 % of control | [4] 98 % of control | [5] 116 % of control | dose: 400.0 mg/kg/injection, schedule: Q01DX009 (ip), vehicle: other 116 % of control

CC(S)c1nc2ccccc2[nH]1 (stereo not drawn)
inactive: dose: 100.0 mg/kg/injection, schedule: Q01DX001 (ip), vehicle: Klucel + Tween-80 100 % of control | dose: 200.0 mg/kg/injection, schedule: Q01DX001 (ip), vehicle: Klucel + Tween-80 97 % of control | dose: 400.0 mg/kg/injection, schedule: Q01DX001 (ip), vehicle: Klucel + Tween-80 111 % of control

ClSC(c1ccccc1)(c1ccccc1)c1ccccc1
inactive: dose: 50.0 mg/kg/injection, schedule: Q01DX005 (ip), vehicle: saline with Tween-80 103 % of control | dose: 100.0 mg/kg/injection, schedule: Q01DX005 (ip), vehicle: saline with Tween-80 118 % of control | dose: 200.0 mg/kg/injection, schedule: Q01DX005 (ip), vehicle: saline with Tween-80 94 % of control

O=c1[nH]c2c([N+](=O)[O-])cc(Cl)cc2nc1/C=C(\O)c1ccccc1
inactive: dose: 60.0 mg/kg/injection, schedule: Q01DX005 (ip), vehicle: Klucel (hydroxypropylcellulose) (HPC) 105 % of control | dose: 120.0 mg/kg/injection, schedule: Q01DX005 (ip), vehicle: Klucel (hydroxypropylcellulose) (HPC) 106 % of control

CC1CCCC(C2CC3CCCCC3C(N)[N-]2)[N-]1.CC1CCCC(C2CC3CCCCC3C(N)[N-]2)[N-]1.O=[N+]([O-])O.[Cu+] (stereo not drawn)
inactive: dose: 25.0 mg/kg/injection, schedule: Q04DX002 (ip), vehicle: suspension in saline 93 % of control | dose: 50.0 mg/kg/injection, schedule: Q04DX002 (ip), vehicle: suspension in saline 97 % of control | dose: 100.0 mg/kg/injection, schedule: Q04DX002 (ip), vehicle: suspension in saline 99 % of control and 97 % of control | dose: 200.0 mg/kg/injection, schedule: Q04DX002 (ip), vehicle: suspension in saline 96 % of control

COc1cc(OC)c2c(O)c3c(=O)cc(C)oc3c(-c3c4cc(OC)cc(OC)c4c(O)c4c(=O)cc(C)oc34)c2c1
inactive: dose: 12.5 mg/kg/injection, schedule: Q01DX005 (ip), vehicle: Klucel (hydroxypropylcellulose) (HPC) 114 % of control | dose: 25.0 mg/kg/injection, schedule: Q01DX005 (ip), vehicle: Klucel (hydroxypropylcellulose) (HPC) 100 % of control | [6] 96 % of control | [7] 100 % of control | [8] 90 % of control | dose: 400.0 mg/kg/injection, schedule: Q01DX005 (ip), vehicle: Klucel (hydroxypropylcellulose) (HPC) 97 % of control

O=C(OCCCl)c1ccccc1NC(=O)N1CCOCC1
inactive: [6] 105 % of control | [7] 99 % of control | [8] 98 % of control

Cn1c(=O)c2ccccc2c2ccccc21
inactive: [9] 96 % of control | [10] 96 % of control | dose: 200.0 mg/kg/injection, schedule: Q01DX009 (ip), vehicle: saline with Tween-80 95 % of control | dose: 400.0 mg/kg/injection, schedule: Q01DX009 (ip), vehicle: saline with Tween-80 99 % of control

OC1(O)CCCCN1Cc1ccccc1
inactive: dose: 25.0 mg/kg/injection, schedule: Q01DX005 (ip), vehicle: saline 103 % of control | dose: 50.0 mg/kg/injection, schedule: Q01DX005 (ip), vehicle: saline 101 % of control | dose: 100.0 mg/kg/injection, schedule: Q01DX005 (ip), vehicle: saline 100 % of control | dose: 200.0 mg/kg/injection, schedule: Q01DX005 (ip), vehicle: saline 107 % of control

CC1(/C=C/Cl)CC(Cl)(CBr)C(Cl)CC1Cl (stereo not drawn)
inactive: dose: 8.75 mg/kg/injection, schedule: Q01DX005 (ip), vehicle: Klucel (hydroxypropylcellulose) (HPC) 97 % of control | dose: 17.5 mg/kg/injection, schedule: Q01DX005 (ip), vehicle: Klucel (hydroxypropylcellulose) (HPC) 91 % of control | dose: 35.0 mg/kg/injection, schedule: Q01DX005 (ip), vehicle: Klucel (hydroxypropylcellulose) (HPC) 97 % of control | dose: 70.0 mg/kg/injection, schedule: Q01DX005 (ip), vehicle: Klucel (hydroxypropylcellulose) (HPC) 91 % of control

CC(=O)c1c(O)c2c(=O)n(C)c(C)cc2n(C)c1=O
inactive: [6] 100 % of control | [7] 100 % of control | [8] 98 % of control

O=[N+]([O-])c1cccnc1C1OCCO1
inactive: dose: 50.0 mg/kg/injection, schedule: Q01DX009 (ip), vehicle: saline + Tween-80 + alcohol 102 % of control | dose: 100.0 mg/kg/injection, schedule: Q01DX009 (ip), vehicle: saline + Tween-80 + alcohol 99 % of control

CCOC(=O)C1C(=O)C(CN(CCCl)CCCl)C(=O)C(C(=O)OCC)C1c1ccc(O)cc1 (stereo not drawn)
inactive: dose: 4.6 micrograms/kg/injection, schedule: Q01DX009 (ip), vehicle: Klucel (hydroxypropylcellulose) (HPC) 104 % of control | dose: 9.0 micrograms/kg/injection, schedule: Q01DX009 (ip), vehicle: Klucel (hydroxypropylcellulose) (HPC) 109 % of control | dose: 18.7 micrograms/kg/injection, schedule: Q01DX009 (ip), vehicle: Klucel (hydroxypropylcellulose) (HPC) 109 % of control | dose: 37.5 micrograms/kg/injection, schedule: Q01DX009 (ip), vehicle: Klucel (hydroxypropylcellulose) (HPC) 116 % of control

COC(=N)CCSSCCC(=N)OC
inactive: dose: 25.0 mg/kg/injection, schedule: Q01DX009 (ip), vehicle: saline 102 % of control | [11] 105 % of control | [12] 106 % of control | dose: 100.0 mg/kg/injection, schedule: Q01DX009 (ip), vehicle: suspension in saline 101 % of control

O=c1c2cc(OCO)ccc2[nH]c2cc3c(=O)c4cc(OCO)ccc4[nH]c3cc12
inactive: [11] 102 % of control | [12] 99 % of control | dose: 200.0 mg/kg/injection, schedule: Q01DX009 (ip), vehicle: saline 93 % of control

O=C1C=C(NCCc2cc3c(cc2Br)OCO3)CCC1
inactive: dose: 100.0 mg/kg/injection, schedule: Q04DX002 (ip), vehicle: saline with Tween-80 97 % of control | dose: 200.0 mg/kg/injection, schedule: Q04DX002 (ip), vehicle: saline with Tween-80 91 % of control | dose: 400.0 mg/kg/injection, schedule: Q04DX002 (ip), vehicle: saline with Tween-80 95 % of control

COC(=O)c1cc(-c2ccccc2)c2c(=O)n(-c3ccccc3)[nH]c2n1
inactive: dose: 60.0 mg/kg/injection, schedule: Q01DX005 (ip), vehicle: saline with Tween-80 99 % of control | dose: 120.0 mg/kg/injection, schedule: Q01DX005 (ip), vehicle: saline with Tween-80 100 % of control | dose: 240.0 mg/kg/injection, schedule: Q01DX005 (ip), vehicle: saline with Tween-80 96 % of control

CC(C)(C)SC(=O)C1CCCCC1
inactive: [9] 103 % of control | [10] 104 % of control

CC(O)(c1ccccc1)C1C(c2ccccc2)N1Cc1ccccc1 (stereo not drawn)
inactive: dose: 50.0 mg/kg/injection, schedule: Q04DX003 (ip), vehicle: saline sonified 100 % of control | dose: 100.0 mg/kg/injection, schedule: Q04DX003 (ip), vehicle: saline sonified 91 % of control

O=C(Nc1cnns1)c1ccccc1
inactive: [1] 105 % of control | [2] 99 % of control | [3] 102 % of control | [4] 105 % of control | [5] 89 % of control

— PubChem BioAssay AID330 (DTP/NCI, 2004)
